{"source": "patent US6818780B2", "about": "“P-hydroxyphenyl propionic acid derivatives as antiproliferative agents” (Consejo Superior de Investigaciones Cientificas, priority 2000, dated 2004)", "system": "human peripheral blood mononuclear cells (CMSP)", "assay": "Test on lymphocyte proliferation: human peripheral blood mononuclear cells (3H-thymidine incorporation), with or without rhIL-2", "assay_type": "cell-based", "conditions": "5 days; for Proliferation of human peripheral blood mononuclear cells, Con A 2 μg/ml (cpm ± DS) / Proliferation of human peripheral blood mononuclear cells, Medium (cpm ± DS) / Proliferation of human peripheral blood mononuclear cells, PHA 10 μg/ml (cpm ± DS) / Proliferation of human peripheral blood mononuclear cells, aCD3 5 μg/ml (cpm ± DS) / Proliferation of human peripheral blood mononuclear cells, aCD3 + Con A (cpm ± DS) / Proliferation of human peripheral blood mononuclear cells, aCD3 + PHA (cpm ± DS): no rhIL-2; for Proliferation of human peripheral blood mononuclear cells in the presence of rhIL-2, Con A 2 μg/ml (cpm ± DS) / Proliferation of human peripheral blood mononuclear cells in the presence of rhIL-2, Medium (cpm ± DS) / Proliferation of human peripheral blood mononuclear cells in the presence of rhIL-2, PHA 10 μg/ml (cpm ± DS) / Proliferation of human peripheral blood mononuclear cells in the presence of rhIL-2, aCD3 5 μg/ml (cpm ± DS) / Proliferation of human peripheral blood mononuclear cells in the presence of rhIL-2, aCD3 + Con A (cpm ± DS) / Proliferation of human peripheral blood mononuclear cells in the presence of rhIL-2, aCD3 + PHA (cpm ± DS): rhIL-2 100 UI/ml", "excerpt": "Tests on Human Peripheral Blood Mononuclear Cells Material and Methods:\nIn order to study more deeply the effects of lactone on cell proliferation, we checked whether the effects described in the above section on cells of murine origin were specific to the cell type and the species or whether, on the other hand, these effects were xeno-independent. For this, we purified human peripheral blood mononuclear cells from healthy controls and we proceeded to study the possible effects of inhibition on the proliferative activity of peripheral blood mononuclear cells (CMSP) from humans, induced by different mitogenic agents acting alone and/or in costimulation with other mitogens and in the presence or absence of recombinant human interleukin 2 (rhIL-2).\nMitogens: Phytohaemaglutinin M (PHA) (Difco Lab., Detroit, Mich., USA), Concanavalin A (Con A, 2 μg/ml, Sigma Chemical Co., Mich., USA), Immobilised anti-CD3 (OKT3, 5 μg/ml, Ortho-mune, Orthodiagnostic System) and rhIL-2 (100 IU/ml, Hoffman-La Roche, N.J., USA).\nAll the reagents included in these tests were diluted in RPMI 1640 culture medium (Whitaker Bioproducts, Walkersville, USA) supplemented with 10% of decomplemented foetal calf serum (Biochrom K G, Berlin), L-glutamin (2 mM, Biochrom K G), Hepes (25 mM, Biochrom K G) and antibiotic (1% penicillin streptomycin, Difco Lab, Detroit, Mich., USA).\nAlso, all the mitogens were optimised in a dose response way in order to obtaining the maximum proliferative response after 5 days of culture.\nVenous blood: The CMSP were obtained from venous blood extracted by antecubital venous puncture. 50 ml of blood were extracted to which were added 50 U of calcic heparin and the mixture was diluted 1/1 (vol/vol) with PSS.\nHuman mononucleated cells: In order to isolate the CMSP they were proceeded to be separated from the rest of the blood components by means of the formation of a density gradient on Ficoll. The cells thus obtained are resuspended in PSS and centrifuged at 400×g for 10 minutes (washing process) and then resuspended in PSS. This operation is repeated three times. In the last of them, PSS is replaced with complete medium.\nGeneral culture conditions: All cell cultures were developed under conditions of sterility in a vertical laminar flow chamber, using single-use sterile materials or materials sterilised in an autoclave or with ethylene oxide. The cultures were conserved in a stove kept at a temperature of 37° C., in an atmosphere with 5% CO2 and relative humidity of 95%. In the various experiments performed, the purified CMSP cell preparations were incubated in sterile dishes with 96 wells at concentrations of 5×10^4 cells/well (200 μl) in the presence of different concentrations of different mitogens for 5 days.\nThe method used for quantifying the cell proliferation was analysis of the incorporation of ^3H-thymidine (^3H-T) into DNA synthesised de novo, detecting the emission of β radiation from the dry extracts of cell cultures to which the tritiated base had been added before its finalisation and collection. The synthesis of DNA was done in triplicate on sterile dishes with 96 flat-bottom wells.\nFrom 20 to 24 hour prior to terminating the cell culture, 1 μCi of ^3H-T was added to each well containing medium; the cultures were gathered by suction through a glass filter, using a Skatron culture collector for this.\nThe synthesis of DNA has been expressed in counts per minute (cpm). Each test was conducted in triplicate, with those data having a variability greater than 10% compared to the mean of the triplicate being rejected, since they could indicate a technical error or contamination in the culture. The cultures were carried out at a constant cell volume per well, as well as at a constant volume of 200 μl.\nNegative Control: Cells in the Presence of Complete Culture Medium\nPositive Control: Stimulation of Cells without the Presence of Lactone […]", "data": [{"smiles": "C=C1C(=O)OC(CCc2ccc(OC)cc2)C1C", "note": "(stereo not drawn) [lactone]", "values": [{"measurement": "Proliferation of human peripheral blood mononuclear cells, Con A 2 μg/ml (cpm ± DS)", "setting": "Lactone 0.0001 μg/ml", "value": "75329 ± 9144", "unit": "cpm"}, {"measurement": "Proliferation of human peripheral blood mononuclear cells, Medium (cpm ± DS)", "setting": "Lactone 0.0001 μg/ml", "value": "3175 ± 1574", "unit": "cpm"}, {"measurement": "Proliferation of human peripheral blood mononuclear cells, PHA 10 μg/ml (cpm ± DS)", "setting": "Lactone 0.0001 μg/ml", "value": "76612 ± 15020", "unit": "cpm"}, {"measurement": "Proliferation of human peripheral blood mononuclear cells, aCD3 5 μg/ml (cpm ± DS)", "setting": "Lactone 0.0001 μg/ml", "value": "44721 ± 4082", "unit": "cpm"}, {"measurement": "Proliferation of human peripheral blood mononuclear cells, aCD3 + Con A (cpm ± DS)", "setting": "Lactone 0.0001 μg/ml", "value": "115090 ± 4133", "unit": "cpm"}, {"measurement": "Proliferation of human peripheral blood mononuclear cells, aCD3 + PHA (cpm ± DS)", "setting": "Lactone 0.0001 μg/ml", "value": "105395 ± 375", "unit": "cpm"}, {"measurement": "Proliferation of human peripheral blood mononuclear cells in the presence of rhIL-2, Con A 2 μg/ml (cpm ± DS)", "setting": "Lactone 0.0001 μg/ml", "value": "96972 ± 18274", "unit": "cpm"}, {"measurement": "Proliferation of human peripheral blood mononuclear cells in the presence of rhIL-2, Medium (cpm ± DS)", "setting": "Lactone 0.0001 μg/ml", "value": "56451 ± 4965", "unit": "cpm"}, {"measurement": "Proliferation of human peripheral blood mononuclear cells in the presence of rhIL-2, PHA 10 μg/ml (cpm ± DS)", "setting": "Lactone 0.0001 μg/ml", "value": "130524 ± 8929", "unit": "cpm"}, {"measurement": "Proliferation of human peripheral blood mononuclear cells in the presence of rhIL-2, aCD3 5 μg/ml (cpm ± DS)", "setting": "Lactone 0.0001 μg/ml", "value": "87091 ± 7078", "unit": "cpm"}, {"measurement": "Proliferation of human peripheral blood mononuclear cells in the presence of rhIL-2, aCD3 + Con A (cpm ± DS)", "setting": "Lactone 0.0001 μg/ml", "value": "154981 ± 15723", "unit": "cpm"}, {"measurement": "Proliferation of human peripheral blood mononuclear cells in the presence of rhIL-2, aCD3 + PHA (cpm ± DS)", "setting": "Lactone 0.0001 μg/ml", "value": "133621 ± 12440", "unit": "cpm"}, {"measurement": "Proliferation of human peripheral blood mononuclear cells, Con A 2 μg/ml (cpm ± DS)", "setting": "Lactone 0.01 μg/ml", "value": "55503 ± 9023", "unit": "cpm"}, {"measurement": "Proliferation of human peripheral blood mononuclear cells, Medium (cpm ± DS)", "setting": "Lactone 0.01 μg/ml", "value": "2867 ± 1527", "unit": "cpm"}, {"measurement": "Proliferation of human peripheral blood mononuclear cells, PHA 10 μg/ml (cpm ± DS)", "setting": "Lactone 0.01 μg/ml", "value": "71092 ± 3555", "unit": "cpm"}, {"measurement": "Proliferation of human peripheral blood mononuclear cells, aCD3 5 μg/ml (cpm ± DS)", "setting": "Lactone 0.01 μg/ml", "value": "40378 ± 219", "unit": "cpm"}, {"measurement": "Proliferation of human peripheral blood mononuclear cells, aCD3 + Con A (cpm ± DS)", "setting": "Lactone 0.01 μg/ml", "value": "93139 ± 3070", "unit": "cpm"}, {"measurement": "Proliferation of human peripheral blood mononuclear cells, aCD3 + PHA (cpm ± DS)", "setting": "Lactone 0.01 μg/ml", "value": "67011 ± 8270", "unit": "cpm"}, {"measurement": "Proliferation of human peripheral blood mononuclear cells in the presence of rhIL-2, Con A 2 μg/ml (cpm ± DS)", "setting": "Lactone 0.01 μg/ml", "value": "54196 ± 80", "unit": "cpm"}, {"measurement": "Proliferation of human peripheral blood mononuclear cells in the presence of rhIL-2, Medium (cpm ± DS)", "setting": "Lactone 0.01 μg/ml", "value": "42568 ± 8631", "unit": "cpm"}, {"measurement": "Proliferation of human peripheral blood mononuclear cells in the presence of rhIL-2, PHA 10 μg/ml (cpm ± DS)", "setting": "Lactone 0.01 μg/ml", "value": "106754 ± 698", "unit": "cpm"}, {"measurement": "Proliferation of human peripheral blood mononuclear cells in the presence of rhIL-2, aCD3 5 μg/ml (cpm ± DS)", "setting": "Lactone 0.01 μg/ml", "value": "39771 ± 3258", "unit": "cpm"}, {"measurement": "Proliferation of human peripheral blood mononuclear cells in the presence of rhIL-2, aCD3 + Con A (cpm ± DS)", "setting": "Lactone 0.01 μg/ml", "value": "130949 ± 16623", "unit": "cpm"}, {"measurement": "Proliferation of human peripheral blood mononuclear cells in the presence of rhIL-2, aCD3 + PHA (cpm ± DS)", "setting": "Lactone 0.01 μg/ml", "value": "94165 ± 15647", "unit": "cpm"}, {"measurement": "Proliferation of human peripheral blood mononuclear cells, Con A 2 μg/ml (cpm ± DS)", "setting": "Lactone 1 μg/ml", "value": "13294 ± 3395", "unit": "cpm"}, {"measurement": "Proliferation of human peripheral blood mononuclear cells, Medium (cpm ± DS)", "setting": "Lactone 1 μg/ml", "value": "1805 ± 1870", "unit": "cpm"}, {"measurement": "Proliferation of human peripheral blood mononuclear cells, PHA 10 μg/ml (cpm ± DS)", "setting": "Lactone 1 μg/ml", "value": "25118 ± 6642", "unit": "cpm"}, {"measurement": "Proliferation of human peripheral blood mononuclear cells, aCD3 5 μg/ml (cpm ± DS)", "setting": "Lactone 1 μg/ml", "value": "1286 ± 255", "unit": "cpm"}, {"measurement": "Proliferation of human peripheral blood mononuclear cells, aCD3 + Con A (cpm ± DS)", "setting": "Lactone 1 μg/ml", "value": "829 ± 484", "unit": "cpm"}, {"measurement": "Proliferation of human peripheral blood mononuclear cells, aCD3 + PHA (cpm ± DS)", "setting": "Lactone 1 μg/ml", "value": "8689 ± 5361", "unit": "cpm"}, {"measurement": "Proliferation of human peripheral blood mononuclear cells in the presence of rhIL-2, Con A 2 μg/ml (cpm ± DS)", "setting": "Lactone 1 μg/ml", "value": "71210 ± 5211", "unit": "cpm"}, {"measurement": "Proliferation of human peripheral blood mononuclear cells in the presence of rhIL-2, Medium (cpm ± DS)", "setting": "Lactone 1 μg/ml", "value": "9548 ± 808", "unit": "cpm"}, {"measurement": "Proliferation of human peripheral blood mononuclear cells in the presence of rhIL-2, PHA 10 μg/ml (cpm ± DS)", "setting": "Lactone 1 μg/ml", "value": "110507 ± 698", "unit": "cpm"}, {"measurement": "Proliferation of human peripheral blood mononuclear cells in the presence of rhIL-2, aCD3 5 μg/ml (cpm ± DS)", "setting": "Lactone 1 μg/ml", "value": "36280 ± 77", "unit": "cpm"}, {"measurement": "Proliferation of human peripheral blood mononuclear cells in the presence of rhIL-2, aCD3 + Con A (cpm ± DS)", "setting": "Lactone 1 μg/ml", "value": "66429 ± 9241", "unit": "cpm"}, {"measurement": "Proliferation of human peripheral blood mononuclear cells in the presence of rhIL-2, aCD3 + PHA (cpm ± DS)", "setting": "Lactone 1 μg/ml", "value": "88220 ± 3174", "unit": "cpm"}]}]}
